For one experiment, the target named is T1, human CB2 receptors (Homo sapiens, UniProt P34972).
T1 construct: using the below described procedure with human tissue samples; from tissue
Briefly: Binding affinity to human CB2 receptors, human tissue samples.

Another experiment addresses T2, CB2 receptor (Mus musculus, UniProt P47936).
T2 construct: membranes were prepared from frozen mouse spleen; from tissue; host or cells: frozen mouse spleen membranes
Briefly: CB2 receptor binding, mouse spleen membranes, [3H]CP-55,940 displacement. To be noted: for Ki: mouse spleen membranes. The procedure:
(§1) The prepared cannabinoid compounds were tested for CB2 receptor binding affinity and for CB1 receptor affinity (to determine selectivity for the CB2 receptor). As used herein, “binding affinity” is represented by the IC50 value which is the concentration of an analog required to occupy the 50% of the total number (Bmax) of the receptors. The lower the IC50 value, the higher the binding affinity. […] The binding affinities (Ki) are expressed in nanomoles (nM).
(§2) The treated membranes were subsequently used in the binding assay described below. Approximately 30 μg of membranes were incubated in silanized 96-well microtiter plate with TME containing 0.1% essentially fatty acid-free bovine serum albumin (BSA), 0.8 nM [^3H] CP-55,940, and various concentrations of test materials at 30° C. for 1 hour. The samples were immediately filtered using a Packard Filtermate 196 and Whatman GF/C filterplates and washed with wash buffer (TME) containing 0.5% BSA. Radioactivity was detected using MicroScint 20 scintillation cocktail added directly to the dried filterplates, and the filterplates were counted using a Packard Instruments Top-Count. Nonspecific binding was assessed using 100 nM CP-55,940. Data collected from three independent experiments performed with duplicate determinations was normalized between 100% and 0% specific binding for [^3H] CP-55,940, determined using buffer and 100 nM CP-55,940.The normalized data was analyzed using a 4-parameter nonlinear logistic equation to yield IC50 values. Data from at least two independent experiments performed in duplicate was used to calculate IC50 values which were converted to Ki values using the using the assumptions of Cheng et al; “Relationship Between the Inhibition Constant (Ki) and the concentration of Inhibitor which causes 50% Inhibition (IC50) of an Enzymatic Reaction”, Biochem. Pharmacol., 22, 3099–3102, (1 973), which is incorporated by reference herein.
For the CB2 receptor binding studies, membranes were prepared from frozen mouse spleen essentially according to the procedure of P. R. Dodd et al; “A Rapid Method for Preparing Synaptosomes: Comparison with Alternative Procedures”, Brain Res., 226, 107–118 (1981) which is incorporated by reference herein. Silanized centrifuge tubes were used throughout to minimize receptor loss due to adsorption. The CB2 binding assay was conducted in the same manner as the CB1 binding assay. The binding affinities (Ki) were also expressed in nanomoles (nM).

Another experiment addresses T3, CB1 receptor (Rattus norvegicus, UniProt P20272).
T3 construct: membranes were prepared from rat forebrain membranes; from tissue; host or cells: rat forebrain membranes
Briefly: CB1 receptor binding, rat forebrain membranes, [3H]CP-55,940 displacement. As to the method:
as §1
For the CB1 receptor-binding studies, membranes were prepared from rat forebrain membranes according to the procedure of P. R. Dodd et al; A Rapid Method for Preparing Synaptosomes: Comparison with Alternative Procedures, Brain Res., 107–118 (1981). The binding of the novel analogues to the CB1 cannabinoid receptor was assessed as described in W. A. Devane et al; Determination and Characterization of a Cannabinoid Receptor in a Rat Brain, Mol. Pharmacol., 34, 605–613 (1988) and A. Charalambous et al; “5′-azido ^8−-THC: A Novel Photoaffinity Label for the Cannabinoid Receptor”, J. Med. Chem., 35, 3076–3079 (1992) with the following changes. The above articles are incorporated by reference herein.
Membranes, previously frozen at −80° C., were thawed on ice. To the stirred suspension was added three volumes of TME (25 mM Tris-HCl buffer, 5 mM MgCl2 and 1 mM EDTA) at a pH 7.4.The suspension was incubated at 4° C. for 30 min. At the end of the incubation, the membranes were pelleted and washed three times with TME.
as §2

The mark [1] stands for this setting: Table 1, 0.8 nM [3H]CP-55,940, read-out: Ki nM CB1.
[2] abbreviates: Table 2, human CB2, read-out: Ki nM CB2 (Human).
The mark [3] stands for this setting: Table 2, 0.8 nM [3H]CP-55,940, read-out: Ki nM CB1.
Setting [4] is: Ki nM CB1, Table 2, 0.8 nM [3H]CP-55,940.

Where two headings read alike, the source gives them in different places.

T1 sequence (P34972 whole entry): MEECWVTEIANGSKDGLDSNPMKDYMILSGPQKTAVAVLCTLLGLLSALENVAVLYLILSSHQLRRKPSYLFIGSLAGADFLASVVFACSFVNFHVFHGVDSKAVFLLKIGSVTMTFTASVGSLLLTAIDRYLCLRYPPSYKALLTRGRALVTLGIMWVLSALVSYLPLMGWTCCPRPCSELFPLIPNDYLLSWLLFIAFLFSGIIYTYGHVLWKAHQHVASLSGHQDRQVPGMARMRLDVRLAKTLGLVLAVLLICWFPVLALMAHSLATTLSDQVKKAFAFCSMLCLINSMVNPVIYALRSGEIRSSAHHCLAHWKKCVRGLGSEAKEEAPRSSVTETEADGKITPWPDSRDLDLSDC
T2 sequence (P47936 whole entry): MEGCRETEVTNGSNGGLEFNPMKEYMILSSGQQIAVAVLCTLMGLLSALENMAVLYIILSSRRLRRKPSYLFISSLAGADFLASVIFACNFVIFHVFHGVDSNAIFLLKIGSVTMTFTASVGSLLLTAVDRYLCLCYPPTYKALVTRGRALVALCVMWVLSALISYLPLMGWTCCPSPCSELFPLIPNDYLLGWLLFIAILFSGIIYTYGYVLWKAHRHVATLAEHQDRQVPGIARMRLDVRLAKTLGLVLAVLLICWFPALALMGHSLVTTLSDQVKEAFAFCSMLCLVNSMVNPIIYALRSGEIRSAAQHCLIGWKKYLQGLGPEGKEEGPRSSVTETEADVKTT
T3 sequence (P20272 whole entry): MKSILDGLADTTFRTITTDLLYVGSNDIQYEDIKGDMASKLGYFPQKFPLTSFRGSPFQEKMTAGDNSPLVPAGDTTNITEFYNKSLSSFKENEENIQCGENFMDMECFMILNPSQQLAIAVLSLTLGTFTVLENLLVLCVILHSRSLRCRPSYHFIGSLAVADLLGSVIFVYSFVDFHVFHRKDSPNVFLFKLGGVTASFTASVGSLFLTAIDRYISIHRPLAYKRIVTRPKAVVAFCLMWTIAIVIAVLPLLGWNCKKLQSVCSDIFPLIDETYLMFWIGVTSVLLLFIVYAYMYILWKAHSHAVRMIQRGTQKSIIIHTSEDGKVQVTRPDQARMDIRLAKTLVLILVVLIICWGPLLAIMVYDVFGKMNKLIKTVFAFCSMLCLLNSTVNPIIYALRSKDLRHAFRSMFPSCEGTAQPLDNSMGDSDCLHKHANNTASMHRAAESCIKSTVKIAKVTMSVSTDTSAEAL

For the compound `CN1CCCCC1Cn1cc(C(=O)c2cc([N+](=O)[O-])ccc2I)c2ccccc21` (racemic) [2-7(R, S)], the Ki at human CB2 receptors (Table 1, human CB2, human tissue samples, read-out: Ki nM CB2 (human)) is 1.6 nM; at CB2 receptor (Table 1, read-out: Ki nM CB2), 5.7 nM; at CB1 receptor (setting [1]) it was 403 nM. For the same compound, at human CB2 receptors (human tissue samples), the “binding affinity to human CB2 receptors (in words)” value was “surprisingly potent cannabinoid”. The “selectivity for the CB2 receptor (in words)” value on CB2 receptor (CB2 versus CB1 binding) is given as “high selectivity for the CB2 receptor”.
Turning to `CN1CCCCC1Cn1cc(C(=O)c2cc([N+](=O)[O-])ccc2I)c2ccccc21` (racemic) [2-32(R,S)], the inhibitory constant (Ki) at human CB2 receptors (setting [2]) was 13.6 nM; at CB2 receptor (Table 2, read-out: Ki nM CB2) it was 3.41 nM; at CB1 receptor (setting [3]), 239 nM.
For the compound `CN1CCCCC1Cn1cc(C(=O)c2ccccc2I)c2ccccc21` (racemic) [2-34(R,S)], the Ki at human CB2 receptors (setting [2]) is 2.49 nM; at CB1 receptor (setting [3]), 2.89 nM.
In the case of `CN1CCCC[C@@H]1Cn1cc(C(=O)c2cc([N+](=O)[O-])ccc2I)c2ccccc21` [2-7(R)], the Ki on CB2 receptor (Ki nM CB2, Table 1) was 0.53 nM; on CB1 receptor (Ki nM CB1, Table 1, 0.8 nM [3H]CP-55,940) it was 285 nM.
On to `CN1CCCC[C@@H]1Cn1cc(C(=O)c2ccccc2I)c2ccccc21` [2-24(R)], for which, on CB1 receptor (setting [1]), the Ki is 1.8 nM.
Same read-out and setting: the figure for `CN1CCCC[C@H]1Cn1cc(C(=O)c2ccccc2I)c2ccccc21` [2-24(S)] is 561 nM.
Consider `O=C(c1ccccc1I)c1cn(CC2COCCN2Cc2ccccc2)c2ccccc12` (stereo not drawn) [2-25], for which the Ki at CB2 receptor (Table 2, read-out: Ki nM CB2) was 1800 nM; on CB1 receptor (setting [3]), 1220 nM.
Regarding `O=C(c1cc([N+](=O)[O-])ccc1I)c1cn(CC2COCCN2Cc2ccccc2)c2ccccc12` (stereo not drawn) [2-26], the Ki on CB2 receptor (Table 2, read-out: Ki nM CB2) stood at 1430 nM; at CB1 receptor (setting [3]), 4210 nM.
For `O=C(c1cccc([N+](=O)[O-])c1I)c1cn(CC2COCCN2Cc2ccccc2)c2ccccc12` (stereo not drawn) [2-27] the same measures were 928 nM and 2380 nM.
For `CN1CCOCC1Cn1cc(C(=O)c2ccccc2I)c2ccccc21` (stereo not drawn) [2-28] the same measures were 226 nM and 27.9 nM.
For `CN1CCOCC1Cn1cc(C(=O)c2cc([N+](=O)[O-])ccc2I)c2ccccc21` (stereo not drawn) [2-29] the same measures were 48.4 nM and 848 nM.
Turning to `CN1CCOCC1Cn1cc(C(=O)c2cccc([N+](=O)[O-])c2I)c2ccccc21` (stereo not drawn) [2-30], the Ki was found to be 154 nM on CB2 receptor (Table 2, read-out: Ki nM CB2) and 464 nM at CB1 receptor (setting [3]).
`CN1CCOCC1Cn1cc(C(=O)c2cccc3ccccc23)c2ccccc21` (stereo not drawn) [2-31]: the Ki came out at 26.6 nM on CB2 receptor (Table 2, read-out: Ki nM CB2) and 5.7 nM on CB1 receptor (setting [3]).
Regarding `CN1CCCC[C@@H]1Cn1cc(C(=O)c2cc([N+](=O)[O-])ccc2I)c2ccccc21` [2-32(R)], the inhibition constant (Ki) on human CB2 receptors came to 6.69 nM; at CB2 receptor (Ki nM CB2, Table 2), 1.42 nM; on CB1 receptor (setting [4]), 140 nM.
For `CN1CCCCC1Cn1cc(C(=O)C23CC4CC(CC(C4)C2)C3)c2ccccc21` (stereo not drawn) [2-33, 1-(N-Methyl-2-piperidinyl)methyl-3-(1-adamantanecarbonyl)-1H-indole] the same measures were 2.32 nM, 4.8 nM and 11.9 nM.
In turn, `CN1CCCC[C@@H]1Cn1cc(C(=O)c2ccccc2I)c2ccccc21` [2-34(R)] gave a Ki at CB1 receptor (setting [4]) of 1.57 nM.
Same read-out and setting: the figure for `CN1CCCC[C@H]1Cn1cc(C(=O)c2ccccc2I)c2ccccc21` [2-34(S)] is 14.2 nM.
`CN1CCCCC1Cn1cc(C(=O)c2ccc3ccccc3n2)c2ccccc21` (stereo not drawn) [2-35]: the Ki at CB2 receptor (Table 2, read-out: Ki nM CB2) is 20.9 nM; at CB1 receptor (setting [3]), 14.4 nM.
Turning to `CN1CCCCC1Cn1cc(C(=O)c2cnc3ccccc3c2)c2ccccc21` (stereo not drawn) [2-36], the Ki on CB2 receptor (Table 2, read-out: Ki nM CB2) turned out to be 8.53 nM; at CB1 receptor (setting [3]), 133 nM.
For `CN1CCCCC1Cn1cc(C(=O)c2cnccn2)c2ccccc21` (stereo not drawn) [2-37] the same measures were 837 nM and 3540 nM.
For `CN1CCCCC1Cn1cc(C(=O)c2ccnc3ccccc23)c2ccccc21` (stereo not drawn) [2-38] the same measures were 747 nM and 719 nM.
For `CN1CCCCC1Cn1cc(C(=O)c2cccs2)c2ccccc21` (stereo not drawn) [2-39] the same measures were 19.5 nM and 41.4 nM.
With `CN1CCCCC1Cn1cc(C(=O)c2cc3ccccc3cn2)c2ccccc21` (stereo not drawn) [2-40], the Ki on CB2 receptor (Table 2, read-out: Ki nM CB2) was determined as 14.5 nM; on CB1 receptor (setting [3]), 28.6 nM.
For `CN1CCCCC1Cn1cc(C(=O)c2cnc3ccccc3n2)c2ccccc21` (stereo not drawn) [2-41] the same measures were 160 nM and 158 nM.
For `CN1CCCCC1Cn1cc(C(=O)c2ccccn2)c2ccccc21` (stereo not drawn) [2-42] the same measures were 147 nM and 421 nM.
For the compound `CN1CCCCC1Cn1cc(C(=O)c2cccc[n+]2[O-])c2ccccc21` (stereo not drawn) [2-43], the Ki turned out to be 1860 nM on CB2 receptor (Table 2, read-out: Ki nM CB2) and 8820 nM at CB1 receptor (setting [3]).
For `CN1CCCCC1Cn1cc(C(=O)c2cncc3ccccc23)c2ccccc21` (stereo not drawn) [2-44] the same measures were 7.04 nM and 16.9 nM.
For `CN1CCCCC1Cn1cc(C(=O)c2cc(C#N)ccc2I)c2ccccc21` (stereo not drawn) [2-45] the same measures were 15.8 nM and 418 nM.
For `CN1CCCCC1Cn1cc(C(=O)c2cc(C#N)ccc2I)c2ccccc21` (stereo not drawn) [2-46] the same measures were 15.4 nM and 339 nM.
On to `CN1CCCCC1Cn1cc(C(=O)c2cc(C(=O)O)ccc2I)c2ccccc21` (stereo not drawn) [2-47], for which the Ki stood at 18.8 nM at CB2 receptor (Table 2, read-out: Ki nM CB2) and 240 nM on CB1 receptor (setting [3]).
For `CN1CCCCC1Cn1cc(C(=O)c2cc(C(N)=O)ccc2I)c2ccccc21` (stereo not drawn) [2-48] the same measures were 47.2 nM and 390 nM.
With `CN1CCCCC1Cn1cc(C(=O)c2cc(O)ccc2I)c2ccccc21` (stereo not drawn) [2-49], the Ki on CB2 receptor (Table 2, read-out: Ki nM CB2) was 18.6 nM; on CB1 receptor (setting [3]), 29.1 nM.

Usually Ki stands for the equilibrium dissociation constant of an inhibitor or competing ligand from its target.

The values above are taken from patent publication US7173027B2, “Receptor selective cannabimimetic aminoalkylindoles” (University of Connecticut, priority 2001, dated 2007).
